From ChEMBL document CHEMBL1201862, “PubChem BioAssay data set” (2004)
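Protocol summary: plate cells (96-well), add compound at 5 concentrations, incubate 48 h, interpolate endpoints linearly. GI50: concentration for 50% inhibition of growth.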 The source made the active and inactive calls. No stated cut-off is given here; in the data, active = GI50 up to about 1.1 µM and inactive = higher.

Experiments:
Test in all cases: NCI tumour cell line growth inhibition, 48 h
786-0 = system: 786-0
A498 = system: A498
A549 = system: A549
ACHN = system: ACHN
CAKI-1 = system: CAKI-1
CCRF-CEM = system: CCRF-CEM
COLO 205 = system: COLO 205
DLD-1 = system: DLD-1
DMS-114 = system: DMS-114
DMS-273 = system: DMS-273
EKVX = system: EKVX
HCC 2998 = system: HCC 2998
HCT-116 = system: HCT-116
HCT-15 = system: HCT-15
HL-60 = system: HL-60
HOP-18 = system: HOP-18
HOP-62 = system: HOP-62
HOP-92 = system: HOP-92
HT-29 = system: HT-29
IGROV-1 = system: IGROV-1
K562 = system: K562
KM-20L2 = system: KM-20L2
KM12 = system: KM12
LOX IMVI = system: LOX IMVI
LXFL 529 = system: LXFL 529
M14 = system: M14
M19-MEL = system: M19-MEL
MOLT-4 = system: MOLT-4
Malme-3M = system: Malme-3M
NCI-H226 = system: NCI-H226
NCI-H23 = system: NCI-H23
NCI-H460 = system: NCI-H460
NCI-H522 = system: NCI-H522
OVCAR-3 = system: OVCAR-3
OVCAR-4 = system: OVCAR-4
OVCAR-5 = system: OVCAR-5
OVCAR-8 = system: OVCAR-8
RPMI-8226 = system: RPMI-8226
RXF 393 = system: RXF 393
RXF 631 = system: RXF 631
SF-268 = system: SF-268
SF-295 = system: SF-295
SF-539 = system: SF-539
SK-MEL-28 = system: SK-MEL-28
SK-MEL-2 = system: SK-MEL-2
SK-MEL-5 = system: SK-MEL-5
SK-OV-3 = system: SK-OV-3
SN12C = system: SN12C
SNB-19 = system: SNB-19
SNB-75 = system: SNB-75
SNB-78 = system: SNB-78
SW-620 = system: SW-620
TK-10 = system: TK-10
U-251 = system: U-251
UACC-257 = system: UACC-257
UACC-62 = system: UACC-62
UO-31 = system: UO-31
XF498 = system: XF498

COc1cc([C@@H]2c3cc4c(cc3[C@@H](NC(=O)c3ccc(C(C)=O)cc3)C3COC(=O)[C@@H]32)OCO4)cc(OC)c1O (some centres undefined)
GI50 (786-0): 0.327 µM (active)
GI50 (A498): 1.66 µM (inactive)
GI50 (A549): 0.0311 µM (active)
GI50 (ACHN): 0.189 µM (active)
GI50 (CAKI-1): 1.9 µM (inactive)
GI50 (CCRF-CEM): 0.0849 µM (active)
GI50 (COLO 205): 3.61 µM (inactive)
GI50 (DLD-1): 1.4 µM (inactive)
GI50 (DMS-114): 0.659 µM (active)
GI50 (DMS-273): 0.0556 µM (active)
GI50 (EKVX): 1.89 µM (inactive)
GI50 (HCC 2998): 1.41 µM (inactive)
GI50 (HCT-116): 0.52 µM (active)
GI50 (HCT-15): 2.46 µM
GI50 (HL-60): 0.0867 µM (active)
GI50 (HOP-18): > 100 µM (inactive)
GI50 (HOP-62): 0.151 µM (active)
GI50 (HOP-92): 1.19 µM (inactive)
GI50 (HT-29): 1.5 µM (inactive)
GI50 (IGROV-1): 1.03 µM (active)
GI50 (K562): 1.48 µM (inactive)
GI50 (KM-20L2): 0.724 µM (active)
GI50 (KM12): 1.36 µM (inactive)
GI50 (LOX IMVI): 0.289 µM (active)
GI50 (LXFL 529): 5.56 µM (inactive)
GI50 (M14): 1.51 µM (inactive)
GI50 (M19-MEL): 3.01 µM (inactive)
GI50 (MOLT-4): < 0.01 µM (active)
GI50 (Malme-3M): 0.254 µM (active)
GI50 (NCI-H226): 0.159 µM (active)
GI50 (NCI-H23): 0.264 µM (active)
GI50 (NCI-H460): < 0.01 µM (active)
GI50 (NCI-H522): 1.1 µM (active)
GI50 (OVCAR-3): 2.38 µM (inactive)
GI50 (OVCAR-4): 27.3 µM (inactive)
GI50 (OVCAR-5): 0.895 µM (active)
GI50 (OVCAR-8): 1.35 µM (inactive)
GI50 (RPMI-8226): 0.877 µM (active)
GI50 (RXF 393): 3.76 µM (inactive)
GI50 (RXF 631): 1.24 µM (inactive)
GI50 (SF-268): 1.09 µM (active)
GI50 (SF-295): 0.6 µM (active)
GI50 (SF-539): 0.316 µM (active)
GI50 (SK-MEL-28): 2.98 µM (inactive)
GI50 (SK-MEL-2): 2.82 µM (inactive)
GI50 (SK-MEL-5): 1.46 µM (inactive)
GI50 (SK-OV-3): 1.56 µM (inactive)
GI50 (SN12C): 0.275 µM (active)
GI50 (SNB-19): 0.29 µM (active)
GI50 (SNB-75): 1.24 µM (inactive)
GI50 (SNB-78): 8.99 µM (inactive)
GI50 (SW-620): 0.24 µM (active)
GI50 (TK-10): 5.81 µM (inactive)
GI50 (U-251): 0.0743 µM (active)
GI50 (UACC-257): 3.88 µM (inactive)
GI50 (UACC-62): 0.206 µM (active)
GI50 (UO-31): 4.57 µM (inactive)
GI50 (XF498): 0.347 µM (active)

CN1Cc2c(nc(-c3ccccc3)c[n+]2[O-])N(C)C1
GI50 (786-0): > 100 µM (inactive)
GI50 (A498): > 100 µM (inactive)
GI50 (A549): > 100 µM (inactive)
GI50 (ACHN): > 100 µM (inactive)
GI50 (CAKI-1): > 100 µM (inactive)
GI50 (CCRF-CEM): > 100 µM (inactive)
GI50 (COLO 205): > 100 µM (inactive)
GI50 (DLD-1): > 100 µM (inactive)
GI50 (DMS-114): > 100 µM (inactive)
GI50 (DMS-273): > 100 µM (inactive)
GI50 (EKVX): > 100 µM (inactive)
GI50 (HCC 2998): > 100 µM (inactive)
GI50 (HCT-15): > 100 µM
GI50 (HL-60): > 100 µM (inactive)
GI50 (HOP-18): > 100 µM (inactive)
GI50 (HOP-62): > 100 µM (inactive)
GI50 (HOP-92): > 100 µM (inactive)
GI50 (HT-29): > 100 µM (inactive)
GI50 (IGROV-1): > 100 µM (inactive)
GI50 (K562): > 100 µM (inactive)
GI50 (KM-20L2): > 100 µM (inactive)
GI50 (KM12): > 100 µM (inactive)
GI50 (LOX IMVI): > 100 µM (inactive)
GI50 (LXFL 529): > 100 µM (inactive)
GI50 (M14): > 100 µM (inactive)
GI50 (M19-MEL): > 100 µM (inactive)
GI50 (MOLT-4): > 100 µM (inactive)
GI50 (Malme-3M): > 100 µM (inactive)
GI50 (NCI-H226): > 100 µM (inactive)
GI50 (NCI-H23): > 100 µM (inactive)
GI50 (NCI-H460): > 100 µM (inactive)
GI50 (NCI-H522): > 100 µM (inactive)
GI50 (OVCAR-3): > 100 µM (inactive)
GI50 (OVCAR-4): > 100 µM (inactive)
GI50 (OVCAR-5): > 100 µM (inactive)
GI50 (OVCAR-8): > 100 µM (inactive)
GI50 (RPMI-8226): > 100 µM (inactive)
GI50 (RXF 631): > 100 µM (inactive)
GI50 (SF-268): > 100 µM (inactive)
GI50 (SF-295): > 100 µM (inactive)
GI50 (SF-539): > 100 µM (inactive)
GI50 (SK-MEL-28): > 100 µM (inactive)
GI50 (SK-MEL-2): > 100 µM (inactive)
GI50 (SK-MEL-5): > 100 µM (inactive)
GI50 (SK-OV-3): > 100 µM (inactive)
GI50 (SN12C): > 100 µM (inactive)
GI50 (SNB-19): > 100 µM (inactive)
GI50 (SNB-75): > 100 µM (inactive)
GI50 (SNB-78): > 100 µM (inactive)
GI50 (SW-620): > 100 µM (inactive)
GI50 (TK-10): > 100 µM (inactive)
GI50 (U-251): > 100 µM (inactive)
GI50 (UACC-257): > 100 µM (inactive)
GI50 (UACC-62): > 100 µM (inactive)
GI50 (UO-31): > 100 µM (inactive)
GI50 (XF498): > 100 µM (inactive)
